Measurements from patent US20230047825A1, “ANTIMICROBIAL PEPTIDES” (priority 2019, published 2023).
Values after ≈ are worked out from the molar mass of the structure shown. Values joined by “and” are separate entries in the source; they are usually repeats but may differ in a detail not shown here. Identical values can stand only once. Like-named read-outs stand apart in the source and are kept apart here. Where a SMILES comes first, the peptide text is derived from it.

How the values were obtained:
[1] = Maximum Tolerated Dose (MTD) assessment, IV TID q8h: mortality, body weight, clinical observations; type: in vivo, mouse; details: 5 mg/kg (IV, TID, q8h)
[2] = system: Staphylococcus aureus ATCC BAA-1556 (USA300, MRSA); assay: microbe, parasite or virus in culture; details: ATCC BAA-1556
Method: (§1) The S. aureus strains ATCC 29213, ATCC 19636, ATCC 33591 (MRSA), BAA-1556 (MRSA USA 300) were obtained from the American Type Culture Collection (ATCC). […] The species identity was confirmed with 16S rRNA analysis.
(§2) Two broth mediums were used, Mueller Hinton Broth and RPMI 1640+5% fetal bovine serum. Test substances were evaluated in 11-point titrations and performed in duplicate.
(§3) The direct colony suspension method was used to prepare inoculated broth. Isolated colonies were taken from an 18-24 h culture plate. Optical density measurements (OD620nm) were used to estimate the bacterial density. […] The stock solutions were diluted by 2-fold serial titrations with their respective vehicles for a total of 11 concentrations.
(§4) A 4 μL aliquot of each dilution was added to 196 μL of broth medium seeded with the organism in wells of a sterilized 96 well polypropylene plate (Nunc™ 249949) using aluminum foil as cover. The final bacterial count was 2 to 8×10^5 CFU/mL. […] The final test article concentration range was 32 to 0.0313 μg/mL.
(§5) Each test substance dilution was evaluated in duplicate on one test occasion. […] Plates were incubated at 35-37° C. for 18 h. The test plates were visually examined and each well was visually scored for growth or complete inhibition of growth. The MIC value was recorded.

[3] = system: Staphylococcus aureus ATCC 19636 (Smith); assay: microbe, parasite or virus in culture; details: ATCC 19636
Method: as §1, §2, §3, §4, §5

[4] = system: Staphylococcus aureus ATCC 29213; assay: microbe, parasite or virus in culture; details: ATCC 29213
Method: as §1, §2, §3, §4, §5

[5] = system: Staphylococcus aureus ATCC 33591 (MRSA); assay: microbe, parasite or virus in culture; details: ATCC 33591
Method: as §1, §2, §3, §4, §5

EMRSA-15 lung infection = system: EMRSA-15 lung infection
Method: Murine EMRSA-15 lung infection model. In one embodiment this was carried out using the method described previously,^58 an overnight culture of EMRSA-15 was prepared in tryptic soy broth (TSB). EMRSA-15 was cultured in TSB overnight at 37° C., adjusted to a starting OD600 of 0.025, and grown for additional 4 h for agar beads preparation. EMRSA-15 was embedded into agar beads by mixing the overnight culture with molten tryptic soy agar, which was then spun into warmed mineral oil. The preparation was cooled and centrifuged at 2,700 g, the remaining oil was eliminated and the beads were washed in sterile PBS. The colony forming unit (cfu) content of the beads slurry was subsequently quantified on TSA plates and the beads slurry then diluted to either 2×10^7 cfu/ml in sterile PBS to deliver a final dose of either 1×10^6 cfu/mouse. Animal work was performed in accordance with the Animals (Scientific Procedures) Act of 1986 (United Kingdom). On day 0, male C57B16J mice (8-10 weeks, Charles River) were anesthetized under Isoflurane and 50 μl inoculum of EMRSA-15 embedded in agar beads (10^6 cfu/mouse) was instilled directly into the respiratory tract via oropharyngeal dosing (o.a) to reduce severity associated with surgery. Sham control mice were inoculated with sterile PBS agar beads. […] Body weight was measured daily, and animals monitored at regular intervals for signs of pain and distress. 48 hours post pulmonary infection, animals were terminally euthanized using 25% Urethane via intra-peritoneal injection. Lungs, were removed and homogenized in 2 ml PBS. Samples were serially diluted 1:10 in PBS and plated for CFU count. Lung homogenates were then centrifuged at 14000 rpm for 30 min at 4° C. and the supernatants were stored at −80° C. for future analysis. For bronchoalveolar lavage fluid collection and analysis (total and differential cell count), a 22-gauge catheter was inserted into the trachea and BAL was recovered by instillation of 0.5 ml of sterile PBS three times and total cells counts were performed by adding Turks stain in a 1:1 ratio. Total cells were then enumerated on an improved Naubauer haemocytometer. BAL fluid was then centrifuged, and supernatants were stored at −20° C. Cytospin slides were prepared and 100 μl of BAL was added into a cytospin funnel and centrifuged at 1000 rpm for 1 minute on a medium acceleration. The slides were then stained using Diff-Quick (Dade, Biomap, Italy).
More suitably Murine EMRSA-15 lung infection model was carried out using the method described previously,^58 an overnight culture of EMRSA-15 was prepared in tryptic soy broth (TSB). EMRSA-15 was cultured in TSB overnight at 37° C., adjusted to a starting OD600 of 0.025, and grown for additional 4 h for agar beads preparation. EMRSA-15 was embedded into agar beads by mixing the overnight culture with molten tryptic soy agar, which was then spun into warmed mineral oil. The preparation was cooled and centrifuged at 2,700 g, the remaining oil was eliminated, and the beads were washed in sterile PBS. The colony forming unit (CFU) content of the beads slurry was subsequently quantified on TSA plates and the beads slurry then diluted to either 2×10^7 CFU/ml in sterile PBS to deliver a final dose of either 1×10^6 CFU/mouse. Animal work was performed in accordance with the Animals (Scientific Procedures) Act of 1986 (United Kingdom). On day 0, male C57B16J mice (8-10 weeks, Charles River) were anesthetized under Isoflurane and 50 μl inoculum of EMRSA-15 embedded in agar beads (10^6 CFU/mouse) was instilled directly into the respiratory tract via oropharyngeal dosing (o.a.) to reduce severity associated with surgery. Sham control mice were inoculated with sterile PBS agar beads.

CC(C)C[C@@H](NC(=O)[C@@H](Cc1ccc(O)cc1)NC(=O)[C@@H](Cc1c[nH]cn1)NC(=O)[C@H](NC(=O)[C@@H](CC(C)C)NC(=O)[C@@H](C)NC(=O)[C@@H](C)NC(=O)[C@@H](CCCNC(=N)N)NC(=O)CNC(=O)[C@H](NC(=O)[C@@H](Cc1c[nH]cn1)NC(=O)[C@@H](CCCNC(=N)N)NC(=O)CNC(=O)[C@H](NC(=O)[C@@H](Cc1c[nH]cn1)NC(=O)[C@@H](C)NC(=O)[C@@H](C)NC(=O)[C@@H](CCCNC(=N)N)NC(=O)[C@@H](CCCNC(=N)N)NC(=O)[C@@H](Cc1ccccc1)NC(=O)[C@@H](Cc1ccccc1)NC(=O)[C@@H](CO)NC(=O)CNC(=O)[C@@H](Cc1c[nH]c2ccccc12)NC(=O)CN)C(C)C)C(C)C)[C@H](C)O)C(N)=O [D-pleurocidin-KR] (HELM PEPTIDE1{G.[dW].G.[dS].[dF].[dF].[dR].[dR].[dA].[dA].[dH].[dV].G.[dR].[dH].[dV].G.[dR].[dA].[dA].[dL].[dT].[dH].[dY].[dL].[am]}$$$$V2.0; N-terminus assumed)
tolerability [1]: tolerated | MIC [2]: 2 µg/mL (≈ 0.709 µM) | MIC [3]: 2 µg/mL (≈ 0.709 µM) | MIC [4]: 2 µg/mL (≈ 0.709 µM) | MIC [5]: 2 µg/mL (≈ 0.709 µM) | reduction in lung CFU (EMRSA-15 lung infection; cumulative dose 1.5 mg/kg/48h i.v.): 0.9 log10 | reduction in lung CFU (EMRSA-15 lung infection; cumulative dose 15 mg/kg/48h i.v. (three doses at 4, 24, 30 h post infection), 15 mg/kg): 1.14 log10 and 1.1 log10 | reduction in lung CFU (EMRSA-15 lung infection; cumulative dose 15 mg/kg/48h i.v. (three doses at 4, 24, 30 h post infection), listed as AMP2b, 15 mg/kg): 1.14 log10 | weight loss over the 48-hour infection period (EMRSA-15 lung infection; cumulative dose of 15 or 1.5 mg/kg/48h i.v.): mitigates this weight loss | IL-6 and neutrophil recruitment in BAL (EMRSA-15 lung infection; following therapy, i.v.): reduced | macrophage numbers, TNFα and MCP-1 levels in BAL (EMRSA-15 lung infection; following therapy, i.v.): No effects | tolerability in murine lung infection model (EMRSA-15 lung infection; i.v., cumulative dose of 15 or 1.5 mg/kg): well tolerated | weight loss over the 48-hour infection period (EMRSA-15 lung infection; lowest cumulative dose of 0.15 mg/kg i.v.): no observable effect | IL-6 and neutrophil recruitment in BAL (EMRSA-15 lung infection; lowest dose of D-pleurocidin-KR (0.15 mg/kg cumulative)): significant reduction | effective cumulative dose over 48 hrs (EMRSA-15 lung infection; murine EMRSA-15 lung infection): 1.5 mg/kg | mouse KC levels in BAL (EMRSA-15 lung infection; vancomycin 600 mg/kg or the two higher D-pleurocidin-KR doses (15, 1.5 mg/kg cumulative)): KC levels to fall to that of the uninfected group
